These results are taken from paper PMC9612222, “Comparative Evaluation of the Antiglycation and Anti-α-Glucosidase Activities of Baicalein, Baicalin (Baicalein 7-O-Glucuronide) and the Antidiabetic Drug Metformin” (Pharmaceutics, 2022).

Where two headings read alike, the source gives them in different places. Marks after values point to notes of the source that are not given here.

One data set is described as follows: ORAC assay. The following applies: 5.0 µM compound. As for the experimental part: The radical oxygen absorption capacity (ORAC) assay was performed as previously described. Briefly, trolox was prepared in phosphate buffer over a concentration range of 6.25 to 50 µM. In 24–well plates, 1.5 mL of fluorescein (0.08 µM) was added, followed by 250 µL of trolox for the control, 250 µL of buffer for the blank, and 250 µL of each inhibitor (5.0 µM). After 10 min of incubation, at 37 °C, 250 µL of 0.15 M AAPH was added. Successively, the PerkinElmer Victor Nivo microplate reader (Waltham, MA, USA) was settled for a fluorescence kinetic reading at 37 °C for one hour, with excitation and emission wavelengths, respectively, of 485 and 530 nm. The results were expressed in TEAC (trolox equivalent antioxidant capacity, TE µmol/µmol compound).

Data set [1] can be described thus: DPPH radical scavenging assay. Conditions: for pD2 (−log EC50) antiradical potency: 70 µM DPPH, 60 min. As for the experimental part: The free radical scavenging activity of the samples was measured using the DPPH^• method. Sample solutions were prepared and added to 70 µM DPPH^•; the mixtures were kept in the dark for 60 min and absorbance was read at 517 nm using a Beckman Coulter DU 8005 spectrophotometer (Fullerton, CA, USA). The radical scavenging capacity was expressed as a percentage effect.
On the technique in general: Loss of DPPH colour is used to gauge radical scavenging.

In a further data set the target is rat α–glucosidase. The following applies: cited from earlier work.
Data set [2] relates to HT–29 cells. The data set is described as follows: MTT cell viability assay. The class given is cell-based, human. As for the experimental part:
Cell viability was assessed with the MTT assay. HT–29 cells were seeded in a 96–well plate at a density of 5000 cells in each well and allowed to grow overnight. The cells were treated with various concentrations of the substances. After 24 h of incubation, an aliquot of MTT solution was added to each well, to reach the final concentration of 500 μg/mL. Subsequently, after the MTT reduction by cellular enzymes, the medium was removed and the insoluble formazan salts were solubilized with 2–propanol. The absorbance of each purple formazan solution was measured using a PerkinElmer Victor Nivo microplate reader (Waltham, MA, USA), at a wavelength of 520 nm.

Data set [3] deals with HT–29 cells. Put plainly: HT–29 uptake assay (HPLC–DAD). The class given is in vitro ADME, human. The following applies: 1 to 50 µM in cell medium, 30 min–3 h. As for the experimental part:
To evaluate the cellular uptake of compounds, a previously described method was used. Briefly, HT–29 cells were seeded in a 6–well plate at a density of 500,000 cells in each well in a complete medium and allowed to grow until confluence for 48 h, at 37 °C (Figure 11). […] After incubation, an aliquot of the extracellular solution was taken from each well and stored at −20 °C for further analysis. The medium was then removed, the cells were washed with PBS and prepared for the following steps: (i) protein quantification, cells were lysed with 200 μL of lysis buffer and the wells were washed with 200 μL of PBS; and (ii) evaluation of cell uptake, cells were gently scraped with PBS, centrifuged at 1250× g rpm for 5 min, and added with 500 μL of 80% v/v methanolic solution in water/0,1% v/v acetic acid to extract intracellular content. The samples were kept on ice for 15 min, then sonicated and centrifuged at 20,000× g rpm for 10 min. […]
Chromatographic analyses were performed with an HPLC instrument (Waters Corporation, Milford, DE, USA) equipped with a 1525 binary HPLC pump and a 2998 photodiode array detector. […] Peaks were detected in the range of 210–400 nm. […] The amount of each compound was calculated using a standard calibration curve. The protein content of the lysate was detected using the Lowry protein assay, to express the results as nmol/mg protein.

In data set [4] the test system is BSA. The data set is described as follows: Carbonyl content assay (BSA–ribose glycation). Also on record: species or system bovine. Conditions: 50 mg/mL BSA + 0.1 M ribose; for inhibition of carbonyl increase: not concentration dependent. As for the experimental part: The total protein–bound carbonyl content was determined by derivatization of the carbonyl group with 2,4–dinitrophenylhydrazine (DNPH), which leads to the formation of a stable dinitrophenylhydrazone product, which was monitored spectrophotometrically at 375 nm with a PerkinElmer Victor Nivo microplate reader (Waltham, MA, USA). Glycated BSA samples were mixed with DNPH solution (10 mM in 2.0 M HCl) for 1 h at 37 °C in the dark. The proteins were precipitated with 20% trichloroacetic acid. The mixture was centrifuged at 10,000× g rpm, 10 min at 4 °C, to obtain a pellet and the supernatant was removed. DNPH was removed by extracting the pellet twice using a solution of ethyl acetate/ethanol (1:1). Lastly, the pellet was dissolved in guanidine hydrochloride (6 M) before reading the absorbance at 375 nm. The concentration of DNPH derivatized proteins was determined by the molar extinction coefficient of 22,000 M^−1 cm^−1 [64]. The protein concentration was measured using a BCA assay, and the protein carbonyl concentration was expressed as nmol/mg of protein. Aminoguanidine (2.5 mM, AG) was used as a positive control.

Data set [5] in a line: GK peptide–ribose assay (peptide cross–linking). Conditions: 2 days; for reduction of GK peptide cross–linking (in words): 1–100 µM. As for the experimental part: The N–acetyl–glycyl–lysine methyl ester (GK) peptide–ribose assay was performed with some modifications to a published method. Briefly, GK peptide (27 mg/mL), a synthetic model peptide, was incubated with 40 mg/mL (0.27 M) D–ribose in sodium phosphate buffer (pH 7.4) and test samples were added at final concentrations ranging from 1.0–100 μM. After 48 h of incubation, fluorescence was read at 355 and 460 nm for excitation and emission wavelengths, respectively, with a PerkinElmer Victor Nivo microplate reader (Waltham, MA, USA). The fluorescence measurement allows the calculation of GK peptide glycation inhibition as a percentage difference between the control condition and glycation in the presence of the inhibitor. Aminoguanidine (2.5 mM, AG) was used as a positive control.

In a further data set the target is α–glucosidase. Conditions: cited from earlier work.
Data set [6] deals with α–glucosidase (EC 3.2.1.20, Saccharomyces cerevisiae type I). The class given is biochemical. The following applies: for inhibition of α–glucosidase activity: 50 µM compound. As for the experimental part: The inhibitory activity of baicalein and baicalin was studied using the yeast α–glucosidase assay, using pNPG as a substrate. The enzyme acts by hydrolyzing pNPG into […] and p–nitrophenol (yellow); the reaction was detected at different inhibitor concentrations by variation in chromatic intensity. Acarbose ([…]) was used as a positive control. Each sample was incubated with several α–glucosidase concentrations (0.035, 0.05, 0.07 and 0.1 µM) in PBS solutions (pH 6.8) for 10 min, at 37 °C. The reaction started with the addition of pNPG. Absorbance values were detected at 405 nm for 60 min, using a PerkinElmer Victor Nivo microplate reader spectrophotometer (Waltham, MA, USA). The half–maximal inhibitory concentration (IC50) was estimated by the plot of relative enzyme activity versus inhibitor concentration. The type of enzyme inhibition exerted by baicalein was evaluated from kinetic studies using different substrate concentrations (0.5, 1.0, 1,5 and 2.0 mM pNPG) through the Michaelis–Menten and Lineweaver–Burk plots.

Data set [7] relates to BSA. The data set is described as follows: BSA assay (AGE formation by fluorescence). Conditions: for concentration inhibiting glyoxal-induced BSA glycation: 50 mg/mL BSA + 0.003 M glyoxal. Also on record: species or system bovine. As for the experimental part: Glycated BSA was obtained according to a previously reported method. Briefly, AGEs were detected using BSA (50 mg/mL, pH 7.4), as protein substrate, and glucose (0.8 M), glyoxal (0.003 M) or ribose (0.1 M), as glycation agents. […] The fluorescence intensity was measured at an excitation wavelength of 355 nm and an emission wavelength of 460 nm with a PerkinElmer Victor Nivo microplate reader (Waltham, MA, USA). Inhibition of AGE formation was calculated as the fluorescence difference between glycation under the control condition and in the presence of each inhibitor. Aminoguanidine (2.5 mM, AG) was used as a positive control.

Setting [8] is: α–glucosidase 0.035 µM, 2 mM pNPG.
[9] abbreviates: α–glucosidase 0.05 µM, 2 mM pNPG.
[10] abbreviates: α–glucosidase 0.07 µM, 2 mM pNPG.
[11] abbreviates: α–glucosidase 0.10 µM, 2 mM pNPG.
Setting [12] is: 50 mg/mL BSA + 0.1 M ribose, 5 days.
Setting [13] is: 50 mg/mL BSA + 0.8 M glucose, 7 days.

Consider `CC(=O)N[C@@H](CS)C(=O)O` [NAC, N–acetylcysteine], for which, in the data set “ORAC assay”, the “TEAC (trolox equivalent antioxidant capacity)” value (“TEAC” below) came to 1.45 ± 0.01 µmol TE/µmol. In addition, the “pD2 (−log EC50) antiradical potency” value in [1] came out at 4.38 ± 0.02.
`O=C1O[C@H]([C@@H](O)CO)C(O)=C1O` [ascorbic acid]: in the data set “ORAC assay”, the “TEAC” value came to 0.65 ± 0.01 µmol TE/µmol. For the same compound, the “pD2 (−log EC50) antiradical potency” value in data set [1] is 4.77 ± 0.04.
With `O=c1cc(-c2ccccc2)oc2cc(O)c(O)c(O)c12` [baicalein, 5,6,7–trihydroxyflavone], the inhibition constant (Ki) (in general, the equilibrium dissociation constant of an inhibitor or competing ligand from its target) at rat α–glucosidase (ref 49) was 14.6 µM; on α–glucosidase (ref 53) it was 45 µM; on α–glucosidase (ref 54), 44 µM; in data set [6] (mixed–model inhibition, 0.05 µM enzyme, 0.5–2.0 mM pNPG, read-out: inhibition constant (Ki)), 25.9 µM. In addition, in the data set “ORAC assay”, the “TEAC” value is recorded as 5.41 ± 0.33 µmol TE/µmol. The “pD2 (−log EC50) antiradical potency” value in data set [1] amounted to 4.91 ± 0.01. Moreover, in the data set with HT–29 cells [2] (5 µM), the “change of cell viability” value is on record as −25 % of the control. The IC50 in the data set on HT–29 cells [2] (Homo sapiens, HT-29, 0.1 to 50 µM, 24 h, read-out: pD2 for inhibition of HT–29 cell viability (converted)) was 36.3 µM; in data set [5] (GK peptide + ribose, read-out: IC50 of AGE formation (GK cross–linking)), 49.7 ± 0.5 µM; in [6] (setting [8]), 18.1 µM; in [6] (setting [9]) it was 24.1 µM; in data set [6] (setting [10]), 51.6 µM; in data set [6] (setting [11]) it was 555 µM. Moreover, the “parent compound after incubation with cells (in words)” value in the data set on HT–29 cells [3] was “no longer measurable”. For the same compound, in the data set with BSA [4], the “concentration range with detectable reduction of carbonyl increase” value fell in the range of 10 to 100 µM. Further, the “inhibition of carbonyl increase” value with BSA [4] is given as 15–25%. Also, the “pD2 of AGE formation (GK cross–linking)” value in data set [5] (GK peptide + ribose) came out at 4.3. The entries for the “inhibition of α–glucosidase activity” value in data set [6] (0.035 µM α–glucosidase) and in [6] (0.05 µM α–glucosidase) were “about 90%” and around 75%, respectively. For the same compound, the “type of enzyme inhibition” value in [6] (Lineweaver–Burk plot, 0.05 µM enzyme, 0.5–2.0 mM pNPG) is listed as “mixed–type”. The “pD2 (−Log IC50)” value in [6] (setting [8]) is on record as 4.74 ± 0.02 ^a; in data set [6] (setting [9]) it was 4.62 ± 0.04 ^a; in data set [6] (setting [10]) it was 4.29 ± 0.07 ^a; in data set [6] (setting [11]), 3.26 ± 0.26 ^b. The “concentration inhibiting glyoxal-induced BSA glycation” value in the data set on BSA [7] (7 days) was found to be 10 µM. Moreover, the “concentration from which glycated albumin is reduced” value with BSA [7] (setting [12]) is recorded as 5 µM. In addition, in the data set with BSA [7] (setting [13]), the “concentration from which AGE formation is significantly inhibited” value is given as 5 µM.
For `O=C(O)[C@H]1O[C@@H](Oc2cc3oc(-c4ccccc4)cc(=O)c3c(O)c2O)[C@H](O)[C@@H](O)[C@@H]1O` [baicalin, 7–β–D–glucuronic acid of 5,6–trihydroxyflavone], the IC50 on rat α–glucosidase (in vitro) was above 400 µM. Besides, in the data set “ORAC assay”, the “TEAC” value came out at 5.90 ± 0.23 µmol TE/µmol. Besides, the “pD2 (−log EC50) antiradical potency” value in data set [1] is given as 4.89 ± 0.03. In addition, in the data set on BSA [4], the “concentration range with detectable reduction of carbonyl increase” value lay in the range of 10 to 100 µM, the “lowest concentration tested that inhibited carbonyl formation” value is given as 5 µM and the “inhibition of carbonyl increase” value is 15–25%. The “reduction of GK peptide cross–linking (in words)” value in data set [5] is “only slightly and not significantly reduced”. Further, the “effect on α–glucosidase activity (in words)” value in [6] (0.05 µM enzyme, 2 mM pNPG, 1–100 µM compound) is “did not induce any modification”. Also, the “concentration inhibiting glyoxal-induced BSA glycation” value in the data set with BSA [7] (7 days) turned out to be 5 µM. Moreover, in the data set with BSA [7] (setting [12]), the “concentration from which glycated albumin is reduced” value was 5 µM. Besides, the “concentration from which AGE formation is significantly inhibited” value in the data set with BSA [7] (setting [13]) stood at 5 µM.
For `CN(C)C(=N)NC(=N)N` [metformin, 1,1–dimethylbiguanide], the “TEAC” value in the data set “ORAC assay” worked out at 0.48 ± 0.10 µmol TE/µmol. Moreover, in [1] (0.1 to 500 µM), the “DPPH scavenging effect (in words)” value was “did not show any scavenging effect”. In addition, the “reduction of GK peptide cross–linking (in words)” value in data set [5] was “not active”. The “inhibition of AGE formation (in words)” value is on record as “did not achieve any protection” in the data set on BSA [7] (setting [12]); “did not show any significant inhibition” in the data set on BSA [7] (setting [13]); “did not show a significant effect” in the data set on BSA [7] (1–100 µM, glucose, glyoxal and ribose (Figure 3)).
